Several values for one entry are separate records, joined by “and”; a condition that tells them apart may be missing. Equal values may be shown once.
Legend:
Experiment in all cases: PDSP GPCR panel primary binding assays at 10 μM
[1] = molecular target: T1, cloned human or rodent CNS receptors, channels, and transporters (PDSP panel) (Homo sapiens, UniProt P35372); conditions: MOR, primary assay
T1 construct: expressed in transfected cells
Outline: (§1)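 Secondary binding curves (11 points, triplicate) were run at targets where the 10 μM primary screen, done in quadruplicate, displaced over 50% of radio-labelled standard ligand on average. Primary screening covered 46–47 cloned human or rodent CNS targets; H3, PBR and GABAA were not followed up.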

[2] = molecular target: T2, cloned human or rodent CNS receptors, channels, and transporters (PDSP panel) (Homo sapiens, UniProt P08908); conditions: 5-HT1A, primary assay
T2 construct: expressed in transfected cells
T2 sequence (P08908 1-422): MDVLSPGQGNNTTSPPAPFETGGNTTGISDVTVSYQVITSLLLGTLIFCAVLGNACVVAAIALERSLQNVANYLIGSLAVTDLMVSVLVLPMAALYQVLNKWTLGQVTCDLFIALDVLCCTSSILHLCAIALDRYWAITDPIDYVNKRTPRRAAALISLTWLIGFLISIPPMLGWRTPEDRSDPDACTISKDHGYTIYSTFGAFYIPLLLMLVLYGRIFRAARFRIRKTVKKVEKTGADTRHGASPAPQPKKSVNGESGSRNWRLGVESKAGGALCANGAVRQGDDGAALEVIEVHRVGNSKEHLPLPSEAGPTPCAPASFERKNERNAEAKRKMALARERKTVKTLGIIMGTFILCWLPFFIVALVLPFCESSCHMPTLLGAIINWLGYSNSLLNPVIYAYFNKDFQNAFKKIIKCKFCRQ
Outline: as §1

[3] = molecular target: T3, cloned human or rodent CNS receptors, channels, and transporters (PDSP panel) (Homo sapiens, UniProt P18089); conditions: Alpha2B, primary assay
T3 construct: expressed in transfected cells
T3 sequence (P18089 1-450): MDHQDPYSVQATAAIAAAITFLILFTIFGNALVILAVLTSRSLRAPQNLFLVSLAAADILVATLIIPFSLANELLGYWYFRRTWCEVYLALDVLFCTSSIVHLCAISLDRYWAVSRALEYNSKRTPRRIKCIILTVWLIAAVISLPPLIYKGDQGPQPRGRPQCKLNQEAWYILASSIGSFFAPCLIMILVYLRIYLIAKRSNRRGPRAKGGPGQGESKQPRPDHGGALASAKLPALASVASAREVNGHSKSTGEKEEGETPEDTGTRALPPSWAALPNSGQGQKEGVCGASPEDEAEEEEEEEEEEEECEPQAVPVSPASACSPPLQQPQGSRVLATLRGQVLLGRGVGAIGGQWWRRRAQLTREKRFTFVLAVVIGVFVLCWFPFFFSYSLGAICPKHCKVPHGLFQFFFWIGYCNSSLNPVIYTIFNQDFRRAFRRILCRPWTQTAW
Outline: as §1

[4] = molecular target: T4, cloned human or rodent CNS receptors, channels, and transporters (PDSP panel) (Homo sapiens, UniProt P35462); conditions: D3, primary assay
T4 construct: expressed in transfected cells
Outline: as §1

[5] = molecular target: T5, cloned human or rodent CNS receptors, channels, and transporters (PDSP panel) (Homo sapiens, UniProt P31645); conditions: SERT, primary assay
T5 construct: expressed in transfected cells
Outline: as §1

[6] = molecular target: T6, cloned human or rodent CNS receptors, channels, and transporters (PDSP panel) (Homo sapiens, UniProt P28566); conditions: 5-HT1E, primary assay
T6 construct: expressed in transfected cells
Outline: as §1

[7] = molecular target: T7, cloned human or rodent CNS receptors, channels, and transporters (PDSP panel) (Homo sapiens, UniProt P25100); conditions: Alpha1D, primary assay
T7 construct: expressed in transfected cells
T7 sequence (P25100 1-572): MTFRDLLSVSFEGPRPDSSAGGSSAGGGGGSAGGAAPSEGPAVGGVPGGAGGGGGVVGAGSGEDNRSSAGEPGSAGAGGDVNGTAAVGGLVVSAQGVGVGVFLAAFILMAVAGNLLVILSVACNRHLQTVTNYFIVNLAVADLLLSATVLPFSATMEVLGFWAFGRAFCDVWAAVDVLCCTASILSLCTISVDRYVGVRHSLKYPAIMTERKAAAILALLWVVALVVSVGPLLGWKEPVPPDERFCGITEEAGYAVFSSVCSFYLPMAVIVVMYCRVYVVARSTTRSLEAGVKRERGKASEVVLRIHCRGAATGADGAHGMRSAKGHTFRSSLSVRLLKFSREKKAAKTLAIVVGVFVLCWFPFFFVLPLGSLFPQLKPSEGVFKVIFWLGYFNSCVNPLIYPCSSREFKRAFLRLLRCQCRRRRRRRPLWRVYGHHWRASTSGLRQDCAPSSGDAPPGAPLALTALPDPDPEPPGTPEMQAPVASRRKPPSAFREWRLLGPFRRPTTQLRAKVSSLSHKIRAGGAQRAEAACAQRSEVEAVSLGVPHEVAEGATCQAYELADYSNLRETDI
Outline: as §1

[8] = molecular target: T8, cloned human or rodent CNS receptors, channels, and transporters (PDSP panel) (Homo sapiens, UniProt P20309); conditions: M3, primary assay
T8 construct: expressed in transfected cells
Outline: as §1

[9] = molecular target: T9, cloned human or rodent CNS receptors, channels, and transporters (PDSP panel) (Homo sapiens, UniProt P21918); conditions: D5, primary assay
T9 construct: expressed in transfected cells
Outline: as §1

T9 sequence (P21918 whole entry): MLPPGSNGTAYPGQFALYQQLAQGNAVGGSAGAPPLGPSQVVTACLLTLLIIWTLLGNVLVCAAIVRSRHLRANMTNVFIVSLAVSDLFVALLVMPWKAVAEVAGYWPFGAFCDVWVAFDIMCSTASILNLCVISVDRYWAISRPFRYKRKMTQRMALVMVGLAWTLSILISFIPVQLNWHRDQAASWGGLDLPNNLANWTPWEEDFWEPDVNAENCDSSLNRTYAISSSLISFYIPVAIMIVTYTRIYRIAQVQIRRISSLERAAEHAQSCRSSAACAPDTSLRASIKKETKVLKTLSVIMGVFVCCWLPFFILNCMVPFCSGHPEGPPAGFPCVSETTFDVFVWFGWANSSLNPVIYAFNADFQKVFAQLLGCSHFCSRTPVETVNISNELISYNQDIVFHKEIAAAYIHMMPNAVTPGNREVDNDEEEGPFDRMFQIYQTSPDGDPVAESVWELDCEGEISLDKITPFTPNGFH
T8 sequence (P20309 whole entry): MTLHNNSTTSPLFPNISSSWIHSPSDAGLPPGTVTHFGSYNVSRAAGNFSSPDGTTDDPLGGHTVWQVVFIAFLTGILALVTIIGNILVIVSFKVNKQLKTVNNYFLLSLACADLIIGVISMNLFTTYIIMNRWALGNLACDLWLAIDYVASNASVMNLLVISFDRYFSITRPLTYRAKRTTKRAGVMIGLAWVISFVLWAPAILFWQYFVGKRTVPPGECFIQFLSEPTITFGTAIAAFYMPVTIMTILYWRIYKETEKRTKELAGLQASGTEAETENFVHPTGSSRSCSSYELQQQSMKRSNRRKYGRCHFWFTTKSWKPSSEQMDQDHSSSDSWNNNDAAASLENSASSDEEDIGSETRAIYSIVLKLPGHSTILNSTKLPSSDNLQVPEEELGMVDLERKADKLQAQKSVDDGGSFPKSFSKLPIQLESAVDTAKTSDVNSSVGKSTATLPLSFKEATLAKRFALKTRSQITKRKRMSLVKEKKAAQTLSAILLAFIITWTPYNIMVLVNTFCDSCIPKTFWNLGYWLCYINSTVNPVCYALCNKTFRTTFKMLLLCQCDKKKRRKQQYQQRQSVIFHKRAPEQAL
T1 sequence (P35372 whole entry): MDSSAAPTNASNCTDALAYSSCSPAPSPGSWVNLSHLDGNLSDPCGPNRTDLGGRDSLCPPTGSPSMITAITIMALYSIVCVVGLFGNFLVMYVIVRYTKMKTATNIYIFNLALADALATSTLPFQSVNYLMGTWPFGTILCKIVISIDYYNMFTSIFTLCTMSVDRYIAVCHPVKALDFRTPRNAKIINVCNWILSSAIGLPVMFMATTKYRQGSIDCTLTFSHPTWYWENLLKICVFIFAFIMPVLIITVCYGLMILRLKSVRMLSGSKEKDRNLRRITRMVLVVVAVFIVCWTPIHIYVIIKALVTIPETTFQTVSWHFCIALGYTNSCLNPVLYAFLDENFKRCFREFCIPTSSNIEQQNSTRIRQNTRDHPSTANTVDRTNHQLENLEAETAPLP
T4 sequence (P35462 whole entry): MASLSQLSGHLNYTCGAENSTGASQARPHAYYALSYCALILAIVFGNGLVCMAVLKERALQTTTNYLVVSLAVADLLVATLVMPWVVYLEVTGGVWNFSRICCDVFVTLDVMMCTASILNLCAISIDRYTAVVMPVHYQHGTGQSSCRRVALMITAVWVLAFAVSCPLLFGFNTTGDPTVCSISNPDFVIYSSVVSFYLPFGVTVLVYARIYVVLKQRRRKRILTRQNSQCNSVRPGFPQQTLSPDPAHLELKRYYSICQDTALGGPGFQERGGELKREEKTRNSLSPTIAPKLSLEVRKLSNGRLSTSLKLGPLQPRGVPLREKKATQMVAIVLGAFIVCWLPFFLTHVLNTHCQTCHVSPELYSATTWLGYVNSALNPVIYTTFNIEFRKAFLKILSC
T5 sequence (P31645 whole entry): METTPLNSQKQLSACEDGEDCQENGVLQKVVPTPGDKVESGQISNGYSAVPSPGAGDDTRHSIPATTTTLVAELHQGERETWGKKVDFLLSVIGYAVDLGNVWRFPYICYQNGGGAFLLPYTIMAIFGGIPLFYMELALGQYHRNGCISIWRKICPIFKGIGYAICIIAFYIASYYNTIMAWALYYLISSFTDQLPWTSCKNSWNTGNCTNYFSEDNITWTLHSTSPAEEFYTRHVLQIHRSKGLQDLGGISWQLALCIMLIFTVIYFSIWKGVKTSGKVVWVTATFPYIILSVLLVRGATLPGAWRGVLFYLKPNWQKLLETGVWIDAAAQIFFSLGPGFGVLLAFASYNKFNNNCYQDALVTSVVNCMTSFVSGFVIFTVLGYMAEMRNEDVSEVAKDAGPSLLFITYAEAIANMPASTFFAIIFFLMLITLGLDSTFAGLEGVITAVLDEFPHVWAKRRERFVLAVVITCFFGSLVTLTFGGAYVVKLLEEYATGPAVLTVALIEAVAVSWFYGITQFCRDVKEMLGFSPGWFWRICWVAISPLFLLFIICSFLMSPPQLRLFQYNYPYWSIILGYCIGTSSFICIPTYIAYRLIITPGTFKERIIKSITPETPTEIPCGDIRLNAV
T6 sequence (P28566 whole entry): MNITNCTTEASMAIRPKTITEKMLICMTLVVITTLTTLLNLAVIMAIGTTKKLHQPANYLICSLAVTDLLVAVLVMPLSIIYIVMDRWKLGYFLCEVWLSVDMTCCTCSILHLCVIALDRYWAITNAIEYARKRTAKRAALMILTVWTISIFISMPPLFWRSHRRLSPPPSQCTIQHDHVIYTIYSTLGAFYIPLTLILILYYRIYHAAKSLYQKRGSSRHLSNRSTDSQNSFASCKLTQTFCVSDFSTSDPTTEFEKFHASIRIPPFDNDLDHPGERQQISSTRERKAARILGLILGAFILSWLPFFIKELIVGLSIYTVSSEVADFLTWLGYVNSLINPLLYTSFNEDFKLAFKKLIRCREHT

How did the Mean % ([1]; mean inhibition) turn out when `CNc1nc(C)nc(N[C@H]2CCC[C@@H](C(=O)NCc3ccc(C#N)cc3C(F)(F)F)C2)n1` [UNC10302679A, GSK2256294A] was run?
The Mean % was -0.18%.

What about the “Inhibition 1” value ([1]; replicate 1) of the same molecule?
Its value is -0.8%.

And the “Inhibition 2” value ([1]; replicate 2)?
Its value is 0.06%.

And the “Inhibition 3” value ([1]; replicate 3)?
Its value is 1.4%.

And the “Inhibition 4” value ([1]; replicate 4)?
Its value is -1.38%.

What about the Mean % ([2]; mean inhibition) of the same molecule?
Its Mean % is 4.14%.

What about the “Inhibition 1” value ([2]; replicate 1) of the same molecule?
The value was 11.98%.

What about the “Inhibition 2” value ([2]; replicate 2) of the same molecule?
Its value is 4.74%.

And the “Inhibition 3” value ([2]; replicate 3)?
The value was -9.57%.

What about the “Inhibition 4” value ([2]; replicate 4) of the same molecule?
The value was 9.39%.

What about the Mean % ([3]; mean inhibition) of the same molecule?
The Mean % was 9.85%.

What about the “Inhibition 1” value ([3]; replicate 1) of the same molecule?
Its value is 12.19%.

What about the “Inhibition 2” value ([3]; replicate 2) of the same molecule?
The value was 4.49%.

And the “Inhibition 3” value ([3]; replicate 3)?
Its value is 0.5%.

What about the “Inhibition 4” value ([3]; replicate 4) of the same molecule?
Its value is 22.22%.

And the Mean % ([4]; mean inhibition)?
Its Mean % is -12.51%.

And the “Inhibition 1” value ([4]; replicate 1)?
The value was -10.05%.

And the “Inhibition 2” value ([4]; replicate 2)?
Its value is -18.34%.

What about the “Inhibition 3” value ([4]; replicate 3) of the same molecule?
Its value is -11.4%.

What about the “Inhibition 4” value ([4]; replicate 4) of the same molecule?
The value was -10.24%.

And the Mean % ([5]; mean inhibition)?
Its Mean % is 7.19% and 15.11%.

What about the “Inhibition 1” value ([5]; replicate 1) of the same molecule?
The value was 10.02% and 22.3%.

And the “Inhibition 2” value ([5]; replicate 2)?
The value was -5.87% and 16.69%.

What about the “Inhibition 3” value ([5]; replicate 3) of the same molecule?
Its value is 7.61% and 10.49%.

And the “Inhibition 4” value ([5]; replicate 4)?
The value was 16.99% and 10.96%.

What about the Mean % ([6]; mean inhibition) of the same molecule?
Its Mean % is 1.71%.

And the “Inhibition 1” value ([6]; replicate 1)?
Its value is 1.79%.

And the “Inhibition 2” value ([6]; replicate 2)?
The value was 6.56%.

And the “Inhibition 3” value ([6]; replicate 3)?
Its value is 8.79%.

And the “Inhibition 4” value ([6]; replicate 4)?
The value was -10.29%.

What about the Mean % ([7]; mean inhibition) of the same molecule?
Its Mean % is -12.86%.

And the “Inhibition 1” value ([7]; replicate 1)?
The value was -4.16%.

And the “Inhibition 2” value ([7]; replicate 2)?
The value was -21.92%.

What about the “Inhibition 3” value ([7]; replicate 3) of the same molecule?
Its value is -15.38%.

And the “Inhibition 4” value ([7]; replicate 4)?
The value was -9.98%.

What about the Mean % ([8]; mean inhibition) of the same molecule?
The Mean % was 1.63%.

What about the “Inhibition 1” value ([8]; replicate 1) of the same molecule?
The value was 7.99%.

And the “Inhibition 2” value ([8]; replicate 2)?
The value was 2.67%.

What about the “Inhibition 3” value ([8]; replicate 3) of the same molecule?
Its value is -7.08%.

And the “Inhibition 4” value ([8]; replicate 4)?
The value was 2.95%.

What about the Mean % ([9]; mean inhibition) of the same molecule?
The Mean % was -9.97%.

What about the “Inhibition 1” value ([9]; replicate 1) of the same molecule?
The value was 0.61%.

And the “Inhibition 2” value ([9]; replicate 2)?
Its value is -8.1%.

And the “Inhibition 3” value ([9]; replicate 3)?
Its value is -21.39%.

What about the “Inhibition 4” value ([9]; replicate 4) of the same molecule?
The value was -11%.

From article PMC9005681, “Use of AD Informer Set compounds to explore validity of novel targets in Alzheimer's disease pathology” (Alzheimer's & Dementia : Translational Research & Clinical …, 2022)
